Columns and labels:
[1] = system: 4T1 cells; test: CellTrace Violet proliferation assay, parental 4T1 cells; assay type: cell-based, mouse; conditions: asparagine supplementation, 24 hours
Description: (§1) For the mCherry competition assay, shRNA-transduced mCherry-positive cells were admixed with untransduced cells. mCherry fluorescence was quantified on the LSR II flow cytometer (BD Biosciences). The proliferation assay was carried out using the CellTrace Violet Cell Proliferation Kit (Thermo Fisher Scientific). For FIG. 3b and FIG. 9e, 4T1 and MDA-MB-231 cells were cultured in media containing 100× concentration of the specified amino acid (relative to the concentration in 1×NEAA) for 2 days or 3 days, respectively, before starting the proliferation assay. Cells were stained with CellTrace violet and then trypsinized and re-suspended in media. After 24 hours, cells were collected in order to quantify violet fluorescence intensity using the SH800 flow cytometer (Sony).

[2] = system: EMT-up genes; test: RNAseq of EMT-up genes; assay type: cell-based, mouse; conditions: parental 4T1 cells grown in asparagine supplemented media
[3] = system: EMT-up proteins; test: iTRAQ proteomic profiling of EMT-up proteins; assay type: cell-based, mouse; conditions: parental 4T1 cells; media supplemented with asparagine
From the text: Cells were washed in ice cold PBS and harvested for iTRAQ quantitative proteomics as previously described in Ross et al. 2004. Three replicates were utilized for each cell line.

[4] = system: Asns-silenced 4T1-T cells; test: mCherry competition assay, Asns-silenced cells; assay type: cell-based, mouse; conditions: media supplemented with asparagine
Description: as §1

[5] = system: 4T1 cells; test: Matrigel invasion assay, parental 4T1 cells; assay type: cell-based, mouse; conditions: media supplemented with asparagine (100× of 1×NEAA, 2 days), 24 h matrigel invasion
Description: (§2) The in vitro invasive capacity of cells was measured using 6-well BioCoat Matrigel invasion plates. For parental 4T1 cells, 1×10^6 cells were plated on individual wells, for 4T1-T cells, 8×10^5 cells were plated on individual wells and for MDA-MB-231 cells, 5×10^5 cells were used per individual well. Cells were resuspended in media without serum and cells invaded into media with 5% fetal bovine serum and 5% fetal calf serum. For FIG. 3b and FIG. 9e, 4T1 and MDA-MB-231 cells were cultured in media containing 100× concentration of the specified amino acid (relative to the concentration in 1×NEAA) for 2 days or 3 days, respectively, before starting the invasion assay. After 24 h, non-invaded cells were removed and the invasion wells were washed in PBS, fixed in 2% glutalaldehyde for 2 min and stained with 0.5% crystal violet for 10 min. The wells were washed in distilled H2O, air-dried and scanned using the Odyssey infrared scanner. The signal was quantified using ImageJ (NIH).

[6] = system: MDA-MB-231 cells; test: CellTrace Violet proliferation assay, MDA-MB-231 cells; assay type: cell-based, human; conditions: asparagine supplementation, 24 hours
Description: as §1

[7] = system: Asns-silenced 4T1-T cells; test: Matrigel invasion assay, Asns-silenced cells; assay type: cell-based, mouse; conditions: media supplemented with asparagine
Description: as §2

[8] = system: 4T1-T cells; test: Orthotopic injection of Asns-silenced or -expressing 4T1-T cells into NSG mice; assay type: in vivo, mouse; conditions: Asns-silenced 4T1 cells orthotopic; L-asparaginase treated mice
Description: (§3) All mouse experiments were approved by the Cold Spring Harbor Animal Care and Use Committee. The maximal permitted tumour size of 20 mm in any direction was never exceeded. All mouse injections were carried out with 6-8-week-old female NOD-SCID-112rg^−/− (NSG) mice (JAX). Balb/c mice were not used in this study as the different clonal cell lines have variable GFP levels due to the lentiviral barcode vector. Tail vein injections were carried out using 5×10^5 mouse mammary tumor cells, which were re-suspended in 100 ul of PBS and injected via tail vein. Orthotopic injections were performed using 1×10^5 mouse mammary tumor cells or 5×10^5 MDA-MB-231 cells. For this, cells were re-suspended in a 1:1 mix of PBS and growth factor reduced Matrigel (BD Biosciences). A volume of 20 ul was injected into the mammary gland #4 for mouse mammary tumor cells and a volume of 40 ul was injected for MDA-MB-231 cells. Primary tumor volume was measured using the formula V=½(L×W^2), where L is length and W is width of the primary tumor. For L-asparaginase studies, mice were administered 200 ul of 60U of L asparaginase 5× per week through intraperitoneal injections. […]
(§4) For each lung, five-micron sections were prepared and stained with a standard H&E protocol. Lung metastatic burden was determined by counting individual lung nodules on one section.

[9] = system: parental 4T1 cells; test: Orthotopic injection of parental 4T1 cells into NSG mice; assay type: in vivo, mouse; conditions: parental 4T1 orthotopic, 60U L-asparaginase 5 times per week for 19 days vs PBS
Description: as §3, §4

[10] = system: solid tumours; conditions: Tallal et al. 1970; cited from earlier work
[11] = Free amino acid quantification in blood serum using HPLC; assay type: in vivo, mouse; conditions: NSG mice; 60U L-asparaginase 5 times per week for 19 days
Description: as §3, with “tumor.” for “tumor. For L-asparaginase studies, mice were administered 200 ul of 60U of L asparaginase 5× per week through intraperitoneal injections.”
Free amino acids were quantified in cultured cells and blood serum. […] Each sample was quantified in triplicates using High Performance Liquid Chromatography (HPLC) and a flourometric detector. For each replicate, nanomoles of each amino acid was measured. […]

[12] = Metabolite profiling of mammary gland, serum and lungs by LC-MS/MS; assay type: in vivo, mouse; conditions: L-asparaginase treated animals
Description: as §3, with “tumor.” for “tumor. For L-asparaginase studies, mice were administered 200 ul of 60U of L asparaginase 5× per week through intraperitoneal injections.”
Dried-down extracts were re-suspended in 25 ul HPLC-grade water, and 1 ul was analyzed using hydrophilic interaction chromatography (HILIC) coupled to tandem mass spectrometry analysis (LC-MS/MS). […] Metabolite differences were analyzed by normalizing samples to total peak area and comparing replicates for each group using one-way ANOVA with multiple comparisons.

[13] = system: Twist1 and E-cadherin; test: IHC staining for Twist1 and E-cadherin in primary tumours; assay type: in vivo, mouse; conditions: primary tumours of mice treated with L-asparaginase
Description: as §3, with “A volume of 20 ul was injected into the mammary gland #4 for mouse mammary tumor cells and a volume of 40 ul was injected for MDA-MB-231 cells.” left out, “tumor.” for “tumor. For L-asparaginase studies, mice were administered 200 ul of 60U of L asparaginase 5× per week through intraperitoneal injections.”
For immunohistochemistry, primary tumors and lungs were processed as previously described in Wagenblast et al. 2015. […] Ecadherin and Twist1 diaminobenzidine-stained (DAB) and hematoxylin stainings were quantified using ImageJ (NIH). For this, images were color deconvoluted according to Ruifrok et al. 2001 and the percent area of E-cadherin and Twist1 positive staining was measured.

For `NC(=O)C[C@H](N)C(=O)O` [asparagine], the growth [1] was “not impacted”, the “mRNA levels of EMT-up genes” value [2] was “increased” and the “expression of EMT-up proteins” value [3] was “increased in expression”. For the same compound, the capacity to grow [4] was “increased”, the increase in invasiveness [5] was “approximately 2 fold” and the growth [6] was “not impacted”. The capacity to invade [7] was “increased”.

With L-asparaginase the primary tumour volume [8] was “reduction”, the resultant metastases [8] was “nearly undetectable” and the primary tumour volumes [9] was “no significant difference”. The metastatic burden ([9]; lung) was “significant reduction”, the treating solid tumours [10] was “ineffective” and the “serum asparagine (HPLC)” value [11] was “undetectable”. For the same compound, the “asparagine in the serum (mass spectrometry)” value [12] was “nearly undetectable” and the “Twist1 and E-cadherin expression (IHC)” value [13] was “significant expression change”.

From patent US20200281243A1, “DIETARY PRODUCT” (CANCER RESEARCH TECHNOLOGY LTD, priority 2017, published 2020)
